Measurements from patent EP2439188B1, “p-Menthane-3,8-diol derivatives and insect repellents comprising them” (priority 2010, dated 2012).
Where two headings read alike, the source gives them in different places.

Tests used:
Solubility in water = format: physicochemical
Text: Tabelle 1 zeigt die Wasserlöslichkeit der erfindungsgemäßen Verbindung PMD-S (para-Menthane-3,8-diol Succinat) im Vergleich zu üblichen in Insektenschutzmitteln eingesetzten Wirkstoffen. Tabelle 1

HeLa-Zellen = experiment: cells; format: cell-based; conditions: Homo sapiens, concentration at which 50 % of the cells die, relative to untreated control cells
Text: (§1) Hierzu wurden Zytotoxizitätsstudien an HeLa-Zellen und an Keratinozyten (SK-Mel-28) durchgeführt. Erstere Tests gelten als gute Alternative zu in vivo Draize Augenreizungstests, während letztere ein gutes Modell für die Hautkompatibilität sind.

[1] = tested on: Keratinozyten (SK-Mel-28); experiment: cells; format: cell-based; conditions: Homo sapiens, SK-MEL-28, SK-Mel-28; concentration at which 50 % of the cells die, relative to untreated control cells; read-out: Keratinocyten Zellen IC50
Text: as §1

| Structure (SMILES) | Löslichkeit in Wasser (Solubility in water; bei 20°C) [g/L bei 20 °C] | Löslichkeit in Wasser (Solubility in water) | IC50 (HeLa-Zellen) [µM] | IC50 [1] [µM] | Löslichkeit in Wasser (Solubility in water; bei 25°C) [g/L bei 25 °C] |
| --- | --- | --- | --- | --- | --- |
| CC[C@@H](C)OC(=O)N1CCCC[C@@H]1CCO (racemic) [KBR 3023, (RS)-sec-butyl-(RS)-2-(2hydroxyethyl) piperidine-1-carboxylat] | 8.2 | – | – | – | – |
| CCN(CC)C(=O)c1cccc(C)c1 [DEET, N,N-Diethyl-m-methylbenzamid] | – | 1 g/L bei 25 °C | 12.4 ± 1.89 | 8.1 ± 3.41 | – |
| CCCCN(CCC(=O)OCC)C(C)=O [IR 3535, Ethyl-3-[(acetyl)(butyl)amino]propanoat] | – | 70 g/L bei 20 °C | 12.5 ± 1.17 | 17.5 ± 2.76 | – |
| CC1CCC(C(C)(C)O)C(O)C1 (stereo not drawn) [PMD, para-Menthan-3,8-diol] | – | – | – | 14.2 ± 5.23 | 0.29 |
